Active and inactive are the calls of the source. The calls are words filed in the database; no cut-off is given here.
Assays:
[1] = target: RAC-alpha serine/threonine-protein kinase (Homo sapiens) (UniProt P31749); assay: Inhibition of AKT phosphorylation at Ser473 in human NCI-H2009 cells up to 10 uM after 4 hrs by Western blot analysis; type: cell-based
[2] = target: RAC-alpha serine/threonine-protein kinase (Homo sapiens) (UniProt P31749); assay: Inhibition of AKT phosphorylation at Ser473 in human NCI-H2009 cells at 2.5 uM after 24 to 48 hrs by Western blot analysis; type: cell-based
[3] = target: RAC-alpha serine/threonine-protein kinase (Homo sapiens) (UniProt P31749); assay: Inhibition of AKT phosphorylation at Ser473 in […] WBras1 cells at 2.5 uM after 4 hrs by Western blot analysis; type: cell-based
[4] = target: RAC-alpha serine/threonine-protein kinase (Homo sapiens) (UniProt P31749); assay: Inhibition of AKT phosphorylation at Ser473 in […] WBras1 cells at 2.5 uM after 24 hrs by Western blot analysis; type: cell-based
NCI-H2009 [5] = assay: Growth inhibition of human NCI-H2009 cells assessed as reduction in cell number at 2.5 uM after 2 to 4 days by flow cytometric analysis; type: functional, cell-based
[6] = target: RAC-alpha serine/threonine-protein kinase (Homo sapiens) (UniProt P31749); assay: Inhibition of AKT phosphorylation at Ser473 in […] WBras1 cells at 25 uM after 24 hrs by Western blot analysis; type: cell-based
[7] = target: RAC-alpha serine/threonine-protein kinase (Homo sapiens) (UniProt P31749); assay: Inhibition of AKT phosphorylation at Ser473 in human NCI-H2009 cells at 25 uM after 24 hrs by Western blot analysis; type: cell-based
[8] = target: RAC-alpha serine/threonine-protein kinase (Homo sapiens) (UniProt P31749); assay: Inhibition of AKT phosphorylation at Ser473 in […] WBras1 cells at 25 uM after 4 hrs by Western blot analysis; type: cell-based
[9] = target: RAC-alpha serine/threonine-protein kinase (Homo sapiens) (UniProt P31749); assay: Inhibition of AKT phosphorylation at Ser473 in human NCI-H2009 cells at 2.5 uM after 1 to 4 hrs by Western blot analysis; type: cell-based
NCI-H2009 [10] = assay: Growth inhibition of human NCI-H2009 cells assessed as reduction in cell number after 2 days by flow cytometric analysis; type: functional, cell-based
[11] = target: RAC-alpha serine/threonine-protein kinase (Homo sapiens) (UniProt P31749); assay: Inhibition of AKT phosphorylation at Ser473 in human NCI-H2009 cells at 1.25 uM after 24 to 48 hrs by Western blot analysis; type: cell-based
[12] = target: RAC-alpha serine/threonine-protein kinase (Homo sapiens) (UniProt P31749); assay: Inhibition of AKT phosphorylation at Ser473 in […] WBras1 cells at 1.25 uM after 4 hrs by Western blot analysis; type: cell-based
[13] = target: RAC-alpha serine/threonine-protein kinase (Homo sapiens) (UniProt P31749); assay: Inhibition of AKT phosphorylation at Ser473 in […] WBras1 cells at 1.25 uM after 24 hrs by Western blot analysis; type: cell-based
NCI-H2009 [14] = assay: Growth inhibition of human NCI-H2009 cells assessed as reduction in cell number at 1.25 uM after 2 to 4 days by flow cytometric analysis; type: functional, cell-based

Sequence of RAC-alpha serine/threonine-protein kinase (Homo sapiens) (P31749 whole entry): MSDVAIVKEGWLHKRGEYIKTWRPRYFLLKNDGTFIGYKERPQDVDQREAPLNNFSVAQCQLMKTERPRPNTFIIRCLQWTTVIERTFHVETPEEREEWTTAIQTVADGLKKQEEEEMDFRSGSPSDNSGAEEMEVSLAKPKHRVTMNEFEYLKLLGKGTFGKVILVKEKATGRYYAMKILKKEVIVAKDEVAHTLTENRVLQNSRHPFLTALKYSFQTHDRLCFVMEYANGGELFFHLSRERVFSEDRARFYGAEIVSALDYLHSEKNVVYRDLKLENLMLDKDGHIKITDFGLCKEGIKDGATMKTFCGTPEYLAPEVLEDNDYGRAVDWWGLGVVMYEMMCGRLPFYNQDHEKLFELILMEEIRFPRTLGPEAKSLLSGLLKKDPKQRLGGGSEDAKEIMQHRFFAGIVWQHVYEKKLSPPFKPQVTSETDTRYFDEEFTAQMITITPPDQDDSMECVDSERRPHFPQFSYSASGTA

inhibition [1]	inhibition [2]	inhibition [3]	inhibition [4]	inhibition [6]	inhibition [7]	inhibition [8]	inhibition [9]	IC50 (NCI-H2009 [10]; NCI-H2009, 48 h)	inhibition [11]	inhibition [12]	inhibition [13]	Structure (SMILES)	growth inhibition (GI) (NCI-H2009 [5])	growth inhibition (GI) (NCI-H2009 [10])	growth inhibition (GI) (NCI-H2009 [14])
inactive	inactive	Active	Active	–	–	–	–	–	–	–	–	CCCCCCCCCCCCSC(=NC)NC	Active	–	–
–	–	–	–	Active	inactive	Active	–	–	–	–	–	C=CCCCCCCCCC1OCCN1CC (stereo unspecified)	inactive	–	–
–	–	–	–	–	–	–	Active	200 nM	Active	Active	Active	CCCCCCCCCCCCSC1=NCCCN1	–	Dose-dependent effect	Active

From ChEMBL document CHEMBL4265884, “Discovery and biological activity of computer-assisted drug designed Akt pathway inhibitors” (Bioorg Med Chem Lett, 2018)
